The target in assay [1] is T1, POSH (Homo sapiens, UniProt Q7Z6J0).
T1 construct: GST-POSH lot NB81/p.118 3.6 mg/ml; fused on or other part: GST tag, used for detection with anti-GST XL665
T1 sequence (Q7Z6J0 1-269 limits assumed): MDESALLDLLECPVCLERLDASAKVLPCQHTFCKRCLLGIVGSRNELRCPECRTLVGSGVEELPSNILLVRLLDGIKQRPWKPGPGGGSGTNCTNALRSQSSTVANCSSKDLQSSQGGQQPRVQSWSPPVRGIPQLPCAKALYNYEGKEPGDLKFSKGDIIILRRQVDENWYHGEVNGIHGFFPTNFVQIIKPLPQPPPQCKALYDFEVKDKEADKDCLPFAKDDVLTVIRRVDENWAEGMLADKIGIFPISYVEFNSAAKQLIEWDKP
Description: IC50 assay procedure: GST-POSH auto-ubiquitination, homogeneous time-resolved fluorescence (Ub-cryptate / anti-GST XL665). Format: biochemical. The following applies: ubiquitin ligase activity of POSH; GST-POSH 33 nM, 30 min preincubation. The source says: In certain preferred embodiments, agents that inhibit (or promote) the ubiquitin ligase activity of a ubiquitin ligase, such as POSH, may be identified using a homogenous time resolved fluorescence assay. Such an assay may employ a GST fused to the RING subunit of a ubiquitin ligase (e.g. POSH). Two flurophore-conjugated detection reagents are also used: anti-GSTXL665 and europium cryptate labeled ubiqutin. The ubiqutination of the ubiquitin ligase by ubiqutin cryptate and binding of the anti-GST tagged XL665 brings the fluorophores into close proximity allowing FRET reaction to occur. Accordingly, FRET serves as a measurement of ubiquitination of the ubiquitin ligase. An enzymatic system may be set up to provide activated ubiquitin, e.g., by providing ubiquitin, an E1 and an E2. Compounds that will not allow the FRET reaction are considered to be inhibitors.
Step 3: establish IC 50 value measurements.
Experimental Protocols: 1. HTS Screening Assay Procedure • Microplates 10109D to 10114D compounds at 1 mM. • (Controls in column 1). • All compounds were perchase from ChemBridge corporation: ChemBridge corporation 16981 Via Tazon, Suite G San Diego, Calif. 92127 a. Microplates Labeling • Put labels to 6 PS U-bottom clear microplate. • Put labels to 18 black microplates (triplicats). b. Microplates Preparation • Put 100 μl GST-POSH at 33 nM in wells of the clear PS U-bottom microplates (exept wells A1-D1). • Negative control: place 100 μl dH2O in wells A1-D1. • (Positive control: place 100 μl GST-POSH at 33 nM in wells E1-H1). • Put 8 μl enzymes solution ×4 to black microplates (column 1 to 11). c. Incubation of E3 with Compounds • Transfer 5 μl of compounds (at 1 mM) to the microplates containing 100 μl GST-POSH. • Add 5 μl of DMSO to controls column 1. • Incubation 30 minutes at RT. d. Enzymatic (Ubiquitination) and Final Steps • Distribution of (triplicate) 3×23 μl incubated compounds into 3 black microplates containing enzymatic solution (on splitting apparatus). • Incubation 30 minutes at 37° C. • Addition of 8 μl EDTA 0.5 M. • Incubation 15 (at least) minutes at RT. • Addition of 30 μl GST XL 665 in reconstitution buffer. • Incubation 45 (at least) minutes at RT. • Reading fluorescence. • Record results in computer. • Put sealing foil back on original and diluted microplates and keep at −70° C. • Always the plates must be closed with lids during each step. 2. […] Microplates Labeling • Put labels to 4 clear PP clear microplate (18.2 μM, 9.1 uM, 1.82 uM, 910 nM,). • Put labels to 5 clear PS U-bottom clear microplate 4.44 μM, 909, 444, 91 and 44 nM) • Put labels to 15 black microplates (triplicates). f. Original Microplate Dilutions • Put DMSO 40 μl to (18.2 μM, 1.82 uM plates) and 20 ul to (9.1 uM, 910 nM plates. • Mix by pipetation the original microplate (3× up and down 45 μl). • Transfer 10 μl of compounds from the original microplate (at 91 μM) to the next microplate (=18.2 μM) on splitting apparatus. • Mix by pipetation the 18.2 uM microplate (3× up and down 45 μl). • Transfer 20 μl of compounds from the 18.2 uM microplate to the next microplate (=9.1 μM) on splitting apparatus. • Mix by pipetation the 9.1 uM microplate (3× up and down 45 μl). • Transfer 10 μl of compounds from the 9.1 uM microplate to the next microplate (=1.82 μM) on splitting apparatus. • Mix by pipetation the 1.82 uM microplate (3× up and down 45 μl). • Transfer 20 μl of compounds from the 1.82 uM microplate to the next microplate (=910 nM) on splitting apparatus • Mix by pipetation. g. Microplates Preparation • Put 123 μl GST-POSH at 33 nM in wells of the 5 clear PS U-bottom clear microplates. • Positive control: place 123 μl GST-POSH at 33 nM in well A12-h12 13 μl DMSO. • Negative control: place 123 μl dH2O in well B1 and 13 μl DMSO. • Put 8 μl enzymes solution ×4 to 15 black microplates. • Controls: put 8 μl enzymes solution ×4 to wells A1 to F1. h. […]

In assay [2] the test system is HIV-1. Briefly: HIV maturation (budding) in virus-like particle assay, HIV-1 p24 antigen ELISA. The following applies: Human immunodeficiency virus 1, read-out: Budding (3 μM). Format: cell-based. The source says:
Compounds were further assessed for effects on maturation of HIV particles in a virus-like particle assay.
For orientation: ELISA stands for enzyme-linked immunosorbent assay.

A word on the IC50: it is the concentration needed to halve the response being measured. A low value points to greater potency. Regarding `CC(=C\c1ccccc1)/C=C1/NC(=S)NC1=O` [Compound 30], half-maximal inhibition in assay [1] (IC50) was put at 2 µM. The same measure, in the same setting: next, `O=C1/C(=C\c2cc(Cl)ccc2O)Sc2ccccc21` [Compound 44]: 0.65 µM.

Molecule `CC(C)(C)c1ccc(C2=N/C(=C\c3cccs3)C(=O)O2)cc1` [Compound 48] yielded a half-maximal inhibitory concentration (IC50) in assay [1] of 1.3 µM. Also, in assay [2], the activity at 3 µM is 58%. `CCCOC(=O)c1ccc(/N=C/c2c(O)ccc3ccccc23)cc1` [Compound 69] had an IC50 in assay [1] of 0.7 µM. In assay [2], the activity at 3 µM worked out at 41%. In assay [1], `Cc1c(Br)c(=O)oc2c(Br)c(O)c(O)cc12` [Compound 83] yielded a half-inhibitory concentration (IC50) of 1 µM.
